From US7981878B2, “Tumor treatment with gliotoxin derivatives” (priority 2005, dated 2011)

What was measured:
[1] = system: CD23; test: CD23 expression (Notch2 target gene) in B-CLL cells by FACS; type: cell-based, human; conditions: 0.2 μM gliotoxin, 24 h
Description: FIG. 3: Gliotoxin is a potent Notch2 trans-activation inhibitor in B-CLL cells. (A) EMSA showing the inhibition of DNA-bound Notch2IC complexes in the presence of 0.2 μg Gliotoxin. B-CLL samples (n=10) were cultured in the presence of 1 ng/ml TPA with or without 0.2 μM Gliotoxin for 24 hours. Nuclear extracts were subjected to EMSA using a oligonucleotide probe spanning a well defined CBF1/NotchIC binding site derived from the CD23a promoter. (B). Corresponding FACS analysis (plus 10 additional B-CLL samples) showing the downregulation of the Notch2 target gene CD23 as well as the induction of apoptosis of Gliotoxin treated B-CLL samples. Columnes represent the percentage of CD19^+CD23^+ (grey bars) and apoptotic cells (black bars: including early apoptotic cells single positive for AnnexinV, and late apoptotic cells double positive for AnnexinV and probidium iodide), respectively.
As drug screening model, a cell culture system was established which conserves the phenotype of freshly isolated B-CLL cells (3×10^6 B-CLL cells/ml RPMI medium+10% FCS, supplemented with 1 ng/ml of TPA). Notch2 activity in the cell nucleus is determined by means of EMSA (electrophoretic mobility shift assay) experiments, and the cell viability (Probidium iodide/annexinV) and CD23 expression (Notch2 target gene) is determined by means of FACS (flow cytometry) analyses, respectively. […]

[2] = system: Jurkat (T-ALL); test: Apoptosis FACS in leukaemia cell line Jurkat; type: cell-based; conditions: 0.2 μM gliotoxin, 24 h
Description: (§1) FIG. 7: (A) The apoptotic activity of gliotoxin on further B-CLL patient samples (CLL4-CLL8) is illustrated. The (non-Notch2-associated) leukaemia cell lines (or the leukaemia cell lines not characterised by ligand-independent Notch2 fragments) Jurkat (T-ALL), SH1 (hairy cell carcinoma), RL-7 and K562 (CML) are resistant to a treatment with 0.2 μM (corresponding to 60 ng/ml) of gliotoxin. Cells were incubated for 24 h+/−gliotoxin, and the percentage of apoptotic cells (probidium-iodide+/annexinV+) was determined by means of FACS analysis. In none of the 4 non-Notch2-associated cell lines indicated, the application of 0.2 μM of gliotoxin led to a significant induction of apoptosis within 24 hours. The cytotoxic effect of Gliotoxin correlates with the Notch2 activity in leukemias. (B) Corresponding EMSA showing the activity of Notch2 in B-CLL cells and in leukemic cell lines (Jurkat, SH1, RL7, and K562).

[3] = system: SH1 (hairy cell carcinoma); test: Apoptosis FACS in leukaemia cell line SH1; type: cell-based; conditions: SH1, 0.2 μM gliotoxin, 24 h
Description: as §1

[4] = system: Hep3B (hepatocellular carcinoma); test: Cell count analysis Hep3B; type: cell-based, human; conditions: 200 nM gliotoxin, 72 h
Description: (§2) FIG. 8 a-d: Effects of gliotoxin on cell counts of various human tumour cell lines in vitro. Cell counts of a) hepatocellular carcinoma cell lines HepG2, Huh7, SNU398, Hep3b, HeLa (cervix) and the cholangiocarcinoma cell line NEC as well as b) the pancreatic cancer cell line Panc-1 and the melanoma cell lines d) MelJuso, Meljuso-Bcl-2 (+) and 607B after 72 h treatment with 200 nM gliotoxin; c-d) Cell count dose range experiments with c) pancreatic carcinoma cell lines Panc-1 and MiaPaCa as well as melanoma cell lines MelJuso, 518A2 and 607B using 25, 50 100 and 200 nM gliotoxin for 24 h. All data are given relative to control ±standard deviation.
(§3) Tumour cells were seeded at a density of 10,000 cells/well in 24-well plates. 24 h after seeding, medium containing gliotoxin was added to yield desired concentrations of gliotoxin. At time points indicated, culture medium was removed by suction. Adherent cells were washed with DPBS (Cambrex, Verviers, Belgium) and incubated with trypsin (Gibco) at 37° C. Detached cells were transferred to test tubes containing Cellpack isotonic fluid (Sysmex Europe, Bornbarch, Germany) and counted with a Coulter Z1 electronic cell counter (Beckman Coulter, Bedford, UK).

[5] = system: Nec (cholangiocellular carcinoma); test: Cell count analysis Nec; type: cell-based, human; conditions: 200 nM gliotoxin, 72 h
Description: as §2, §3

[6] = system: 518A2 (melanoma); test: Apoptosis flow cytometry (Annexin V / 7-AAD) 518A2; type: cell-based, human; conditions: 518A2, 200 nM gliotoxin, 24 h
Description: FIG. 10 a-b: Effects of gliotoxin on Notch2 regulation and apoptosis. The melanoma cell line 518A2 (A) and the pancreatic cancer cell line Panc-1 (B) were treated with 200 nM gliotoxin or vehicle control for 24 h Notch2 activity was analysed by band shift assay. Apoptosis was measured as annexin V and 7-AAD double positivity by FACS. Data are given as percentage of apoptotic cells ±standard deviation.
Tumour cells were seeded at a density of 50,000 cells/well in 6 well plates. 24 h after seeding, medium containing gliotoxin was added to yield desired concentrations of gliotoxin. After further 24 h cells were harvested, counted and washed twice with PBS. Then, 100,000 cells were resuspended in 100 μl binding buffer and stained with Annexin V-PE and 7-AAD (both Becton Dickinson, N.J., USA) according to manufacturer's recommendations. After 20 minutes incubation time at room temperature in the dark, 400 μl binding buffer was added and immediately analyzed on a FACScalibur flow cytometer using CellQuest software (both Becton Dickinson, N.J., USA)

[7] = system: mouse cell line P388; conditions: cited from earlier work

Structure (SMILES): CN1C(=O)[C@]23CC4=CC=C[C@H](O)[C@H]4N2C(=O)[C@@]1(CO)SS3 [gliotoxin, [3R-(3α,5aβ,6β,10aα)]-2,3,5a,6-tetrahydro-6-hydroxy-3-(hydroxymethyl)-2-methyl-10H-3,10a-epi-dithiopyrazino[1,2-a]indol-1,4-dion]
- CD23 expression [1]: loss of the CD23 expression
- induction of apoptosis (probidium-iodide+/annexinV+) [2]: resistant
- induction of apoptosis (probidium-iodide+/annexinV+) [3]: resistant
- mean reduction of cell numbers compared to vehicle treated controls [4]: 88%
- mean reduction of cell numbers compared to vehicle treated controls [5]: 93%
- apoptotic cells (annexin V and 7-AAD double positive) [6]: 92%
- IC50 with regard to cell viability [7]: 5,8 ng/ml
